Entries after “also recorded” stand apart in the source; their conditions may differ.
Assays:
claudin-14 protein = test: claudin-14 immunostaining, tight junction localization in mouse kidney sections; format: in vivo; settings: 30 mg/kg BW−1
Procedure: (§1) For viewing claudin localization in the kidney, fresh cryostat sections (10 μm) were fixed with cold methanol at −20° C., followed by blocking with PBS containing 10% FBS, incubation with primary antibody (1:300) and FITC-labeled secondary antibody (1:200). After washing with PBS, slides were mounted with Mowiol (Calbiochem). Epifluorescence images were taken with a Nikon 80i photomicroscope equipped with a DS-QilMc digital camera. All images were converted to TIFF format and arranged using Photoshop CS4 (Adobe).
as §1, with “DS-Qi1Mc” for “DS-QilMc”

PTH = test: plasma PTH levels after NPS2143 or cinacalcet; format: in vivo, mouse; settings: for Plasma PTH level, course: 8 hrs versus 2 hr; for PTH response: cyclosporine-A pre-treated
[1] = urinary Ca++ and Mg++ levels (ratios to creatinine) in spot urine collections; format: in vivo, mouse; settings: 5 mg/kg BW−1
Procedure: Mice were housed individually in metabolic cages (Harvard Apparatus) with free access to water and food for 24 hr. Urine was collected under mineral oil. The plasma and urine Ca^++ and Mg^++ levels were determined with atomic flame absorption spectrophotometer (PerkinElmer). The creatinine levels were measured with an enzymatic method that was independent of plasma chromogens. (Gong Y, et al., 2013) The fractional excretion of electrolytes was calculated using the following equation FEion=V×Uion/(GFR×Pion), where GFR was calculated according to the clearance rate of creatinine (GFR=V×Ucreatinine/Pcreatinine).
In these experiments, the inventors gave wild-type C57BL/6 mice SAHA treatments at 5 mg/kg BW^−1 and traced urinary Ca^++ and Mg^++ levels (as ratios to creatinine) from 4 hr to 12 hr in spot urine collections. Consistent with the downregulation of CLDN14 gene expression at 4 hrs, the urinary excretion of Ca^++ and Mg^++ was reduced by 47% and 40% respectively (p<0.01, n=5 versus vehicle, FIG. 19A-B).

[2] = 24 hr urinalysis in metabolic cages, plasma and urine electrolytes; format: in vivo, mouse
Procedure: Age (9-10 weeks old) and sex (male) matched wild-type and CLDN14 KO mice were housed individually in metabolic cages (Harvard Apparatus) with free access to water and food for 24 hr. Urine was collected under mineral oil. The plasma and urine Ca^++ and Mg^2+ levels were determined with atomic flame absorption spectrophotometer (PerkinElmer). The plasma (P) and urine (U) electrolyte levels were determined with the Roche Cobas clinical analyzer (Roche Diagnostics). […] The fractional excretion of electrolytes was calculated using the following equation: FEion=V×Uion/(GFR×Pion), where GFR was calculated according to the clearance rate of creatinine (GFR=V×Ucreatinine/Pcreatinine).
Mice were housed individually in metabolic cages (Harvard Apparatus) with free access to water and food for 24 hr. Urine was collected under mineral oil. The plasma and urine Ca^++ and Mg^++ levels were determined with atomic flame absorption spectrophotometer (PerkinElmer). The creatinine levels were measured with an enzymatic method that was independent of plasma chromogens.

[3] = test system: CLDN16, CLDN19, TRPV5, TRPM6, NKCC2, ROMK, TSC, Klotho and VDR; test: gene expression of renal ion transporters in SAHA treated mouse kidneys (real-time PCR); format: in vivo; settings: SAHA versus vehicle
From the text: FIG. 25 illustrates gene expression analyses of renal ion transporters in SAHA versus vehicle treated mouse kidneys by real-time PCR. Values are shown as fold ratios relative to the vehicle level (as mean±SEM; n=5).
Total RNA including microRNA was extracted using Trizol (Invitrogen). Cellular mRNA was reverse transcribed using the Superscript-III kit (Invitrogen), followed by real-time PCR amplification using SYBR Green PCR Master Mix (Bio-Rad) and Eppendorf Realplex2S system. The design of claudin-14 primers was described before by Gong et al., 2012. The design of pri-miRNA primers and ChIP primers was according to Gong et al., 2013. Results were expressed as 2^−ΔCt values with ΔCT=Ctgene−Ctβ-actin.

[4] = WT, at both 2 hrs and 8 hrs, 30 mg/kg BW−1, versus vehicle
[5] = WT pre-treated with furosemide 40 mg/kg BW−1 per day, Veh + Furo = furosemide alone

With `CC(C)(Cc1ccc2ccccc2c1)NC[C@@H](O)COc1cccc(Cl)c1C#N` [NPS2143] the “claudin-14 staining in tight junctions of TALH tubules” value (claudin-14 protein) was “reduced the staining signal for claudin-14 to punctate foci; also recorded: reduced the staining signal for claudin-14 to punctuate foci”, the “Plasma PTH level, course” value (PTH; WT) was “started to return towards baseline” and the “plasma PTH levels” value (PTH; [4]) was “significantly affected”. For the same compound, the “plasma PTH levels” value (PTH; claudin-14 KO animals, 2 hrs) was “significant increases in plasma PTH levels” and the PTH response (PTH; 2 hrs) was “intact PTH response”.

With `O=C(CCCCCCC(=O)Nc1ccccc1)NO` [SAHA, Suberanilohydroxamic acid] the “urinary excretion of Ca++, reduction” value ([1]; 4 hrs, versus vehicle) was 47%, the “urinary excretion of Mg++, reduction” value ([1]; 4 hrs, versus vehicle) was 40% and the “effects on urinary Ca++ and Mg++ levels” value ([1]; after 12 hrs) was “completely lost”. The “urinary Ca++ excretion” value ([1]; by 8 hrs) was “hypocalciuria was pronounced”, the urinary magnesium excretion ([1]; by 8 hrs) was “recovered to the vehicle level” and the ECa ([2]; CLDN14 KO, same SAHA regimen) was 1.20 ± 0.24 ug/24 hr · g. It also gave an EMg ([2]; CLDN14 KO, same SAHA regimen) of 6.50 ± 0.55 ug/24 hr · g, an FECa ([2]; CLDN14 KO, same SAHA regimen) of 0.45 ± 0.07% and an FEMg ([2]; CLDN14 KO, same SAHA regimen) of 9.90 ± 0.83%. It also gave a PCa ([2]; CLDN14 KO, same SAHA regimen) of 11.13 ± 0.34 mg/dL, a PMg ([2]; CLDN14 KO, same SAHA regimen) of 2.76 ± 0.05 mg/dL and an ECa [2, 5] of 3.37 ± 0.75 ug/24 hr · g. For the same compound, the EMg [2, 5] was 8.34 ± 2.15 ug/24 hr · g, the FECa [2, 5] was 1.97 ± 0.38% and the FEMg [2, 5] was 22.50 ± 6.40%. The PCa [2, 5] was 9.95 ± 0.41 mg/dL, the PMg [2, 5] was 2.20 ± 0.06 mg/dL and the ECa ([2]; WT, SAHA 10 mg/kg BW−1 per day) was 0.72 ± 0.26^□ ug/24 hr · g. The EMg ([2]; WT, SAHA 10 mg/kg BW−1 per day) was 3.16 ± 0.80^□□ ug/24 hr · g, the FECa ([2]; WT, SAHA 10 mg/kg BW−1 per day) was 0.27 ± 0.08^□□ % and the FEMg ([2]; WT, SAHA 10 mg/kg BW−1 per day) was 6.06 ± 1.71^□□ %. For the same compound, the PCa ([2]; WT, SAHA 10 mg/kg BW−1 per day) was 11.38 ± 0.44^□ mg/dL, the PMg ([2]; WT, SAHA 10 mg/kg BW−1 per day) was 2.71 ± 0.12^□ mg/dL and the “effect of chronic treatment on calcemia” value ([2]; chronic SAHA treatment) was “mild hypercalcemia”. The “expression levels of other major Ca++/Mg++ transporters from the kidney” value [3] was “nor did the inventors find any significant change”.

For `C[C@@H](NCCCc1cccc(C(F)(F)F)c1)c1cccc2ccccc12` [cinacalcet], the “claudin-14 staining in tight junctions of TALH tubules” value (claudin-14 protein) was “profoundly upregulated claudin-14 protein levels in the tight junction”, the “Plasma PTH level, course” value (PTH; WT) was “continued to suppress plasma PTH levels” and the “plasma PTH levels” value (PTH; [4]) was “significantly affected”. For the same compound, the “plasma PTH levels” value (PTH; claudin-14 KO animals, 2 hrs) was “suppressed PTH levels” and the PTH response (PTH; 2 hrs) was “intact PTH response”.

— US20140242609A1, “Diagnosis and treatment of kidney stones, methods and compositions therefor” (Washington University, priority 2013, published 2014)
